# ChEMBL document CHEMBL1130164 (J Med Chem, 1997)
# How the values were obtained:
# [1] = target: cAMP-dependent protein kinase catalytic subunit alpha (Homo sapiens, UniProt P17612); experiment: Inhibitory concentration against recombinant human cAMP-dependent Protein kinase A
# [2] = target: T1, Protein kinase C epsilon type (Homo sapiens, UniProt Q02156); experiment: Inhibitory concentration against recombinant human Protein kinase C epsilon isozyme
# T1 sequence (Q02156 whole entry): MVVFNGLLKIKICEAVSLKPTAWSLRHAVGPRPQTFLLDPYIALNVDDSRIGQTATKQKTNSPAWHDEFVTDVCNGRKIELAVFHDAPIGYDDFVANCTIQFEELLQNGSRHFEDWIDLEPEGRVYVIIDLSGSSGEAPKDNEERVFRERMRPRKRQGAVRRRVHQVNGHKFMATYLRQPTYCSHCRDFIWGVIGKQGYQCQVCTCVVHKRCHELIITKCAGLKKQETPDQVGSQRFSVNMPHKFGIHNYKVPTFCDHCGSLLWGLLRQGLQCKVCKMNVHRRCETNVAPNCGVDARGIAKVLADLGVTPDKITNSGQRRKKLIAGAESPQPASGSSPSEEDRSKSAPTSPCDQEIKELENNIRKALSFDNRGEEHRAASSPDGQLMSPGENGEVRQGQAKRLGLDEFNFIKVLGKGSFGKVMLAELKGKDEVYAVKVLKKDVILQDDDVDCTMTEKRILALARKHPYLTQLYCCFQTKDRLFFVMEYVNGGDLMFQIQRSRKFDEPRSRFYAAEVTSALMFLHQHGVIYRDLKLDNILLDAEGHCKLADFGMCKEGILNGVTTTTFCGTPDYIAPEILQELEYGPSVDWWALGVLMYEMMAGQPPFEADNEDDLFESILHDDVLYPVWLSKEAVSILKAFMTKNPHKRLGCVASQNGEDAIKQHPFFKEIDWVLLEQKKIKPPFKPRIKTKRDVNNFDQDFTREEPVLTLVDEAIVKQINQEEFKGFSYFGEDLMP
# [3] = target: Protein kinase C delta type (Homo sapiens, UniProt Q05655); experiment: Inhibitory concentration against recombinant human Protein kinase C delta isozyme
# Sequence of Protein kinase C delta type (Q05655 whole entry): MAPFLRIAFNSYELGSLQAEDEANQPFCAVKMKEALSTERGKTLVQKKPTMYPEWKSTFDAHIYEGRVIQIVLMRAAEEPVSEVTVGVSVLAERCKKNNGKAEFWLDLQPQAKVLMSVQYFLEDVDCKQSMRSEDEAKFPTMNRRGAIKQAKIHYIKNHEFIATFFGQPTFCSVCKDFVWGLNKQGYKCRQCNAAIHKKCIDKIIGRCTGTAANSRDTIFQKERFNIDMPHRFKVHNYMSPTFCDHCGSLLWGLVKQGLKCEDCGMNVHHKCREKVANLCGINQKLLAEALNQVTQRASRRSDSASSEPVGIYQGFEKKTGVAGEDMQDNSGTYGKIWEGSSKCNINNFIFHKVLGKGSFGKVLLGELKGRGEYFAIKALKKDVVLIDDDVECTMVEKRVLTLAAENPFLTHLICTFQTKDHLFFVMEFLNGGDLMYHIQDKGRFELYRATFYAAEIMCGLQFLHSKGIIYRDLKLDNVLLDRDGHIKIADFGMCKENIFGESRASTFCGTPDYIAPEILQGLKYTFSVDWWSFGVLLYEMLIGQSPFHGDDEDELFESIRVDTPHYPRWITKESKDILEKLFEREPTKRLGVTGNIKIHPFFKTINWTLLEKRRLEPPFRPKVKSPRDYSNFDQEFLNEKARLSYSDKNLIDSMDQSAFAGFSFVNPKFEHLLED
# [4] = target: T2, Protein kinase C zeta type (Homo sapiens, UniProt Q05513); experiment: Inhibitory concentration against recombinant human Protein kinase C zeta isozyme
# T2 sequence (Q05513 whole entry): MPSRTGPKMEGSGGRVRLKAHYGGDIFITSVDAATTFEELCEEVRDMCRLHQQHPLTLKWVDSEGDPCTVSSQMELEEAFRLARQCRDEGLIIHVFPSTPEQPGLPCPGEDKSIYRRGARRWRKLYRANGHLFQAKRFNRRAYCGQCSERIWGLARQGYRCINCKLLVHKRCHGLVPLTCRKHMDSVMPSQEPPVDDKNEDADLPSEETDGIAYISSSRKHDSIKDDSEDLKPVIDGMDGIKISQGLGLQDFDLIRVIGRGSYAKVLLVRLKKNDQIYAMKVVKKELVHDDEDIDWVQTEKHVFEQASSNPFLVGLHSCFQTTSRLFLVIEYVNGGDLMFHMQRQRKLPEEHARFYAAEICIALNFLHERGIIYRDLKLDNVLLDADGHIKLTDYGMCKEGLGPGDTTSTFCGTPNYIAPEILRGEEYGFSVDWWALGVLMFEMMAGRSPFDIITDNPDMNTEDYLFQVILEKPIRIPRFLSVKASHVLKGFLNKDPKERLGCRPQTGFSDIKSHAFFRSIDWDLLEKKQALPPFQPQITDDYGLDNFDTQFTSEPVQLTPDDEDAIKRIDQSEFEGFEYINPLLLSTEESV
# [5] = target: T3, Protein kinase C beta type (Homo sapiens, UniProt P05771); experiment: Inhibitory concentration against recombinant human Protein kinase C beta 1 isozyme
# T3 sequence (P05771 whole entry): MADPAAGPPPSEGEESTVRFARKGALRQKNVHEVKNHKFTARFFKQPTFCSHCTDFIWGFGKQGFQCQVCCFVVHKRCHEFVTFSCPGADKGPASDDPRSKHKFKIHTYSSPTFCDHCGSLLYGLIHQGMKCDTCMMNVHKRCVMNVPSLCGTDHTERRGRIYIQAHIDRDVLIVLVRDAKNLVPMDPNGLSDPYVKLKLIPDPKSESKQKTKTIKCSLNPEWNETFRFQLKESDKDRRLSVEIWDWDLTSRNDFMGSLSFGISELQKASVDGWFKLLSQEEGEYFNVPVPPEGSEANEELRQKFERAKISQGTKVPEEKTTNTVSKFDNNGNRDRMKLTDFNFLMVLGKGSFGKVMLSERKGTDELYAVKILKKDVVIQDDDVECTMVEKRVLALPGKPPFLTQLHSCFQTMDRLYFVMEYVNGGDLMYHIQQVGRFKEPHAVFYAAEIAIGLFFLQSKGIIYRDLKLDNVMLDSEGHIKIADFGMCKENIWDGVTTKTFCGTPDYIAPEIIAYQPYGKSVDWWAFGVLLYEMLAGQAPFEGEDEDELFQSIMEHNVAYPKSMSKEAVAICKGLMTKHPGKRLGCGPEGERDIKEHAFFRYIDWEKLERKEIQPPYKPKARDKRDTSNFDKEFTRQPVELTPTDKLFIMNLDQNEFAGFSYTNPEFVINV
# [6] = target: Protein kinase C eta type (Homo sapiens, UniProt P24723); experiment: Inhibitory concentration against recombinant human Protein kinase C eta isozyme
# Sequence of Protein kinase C eta type (P24723 whole entry): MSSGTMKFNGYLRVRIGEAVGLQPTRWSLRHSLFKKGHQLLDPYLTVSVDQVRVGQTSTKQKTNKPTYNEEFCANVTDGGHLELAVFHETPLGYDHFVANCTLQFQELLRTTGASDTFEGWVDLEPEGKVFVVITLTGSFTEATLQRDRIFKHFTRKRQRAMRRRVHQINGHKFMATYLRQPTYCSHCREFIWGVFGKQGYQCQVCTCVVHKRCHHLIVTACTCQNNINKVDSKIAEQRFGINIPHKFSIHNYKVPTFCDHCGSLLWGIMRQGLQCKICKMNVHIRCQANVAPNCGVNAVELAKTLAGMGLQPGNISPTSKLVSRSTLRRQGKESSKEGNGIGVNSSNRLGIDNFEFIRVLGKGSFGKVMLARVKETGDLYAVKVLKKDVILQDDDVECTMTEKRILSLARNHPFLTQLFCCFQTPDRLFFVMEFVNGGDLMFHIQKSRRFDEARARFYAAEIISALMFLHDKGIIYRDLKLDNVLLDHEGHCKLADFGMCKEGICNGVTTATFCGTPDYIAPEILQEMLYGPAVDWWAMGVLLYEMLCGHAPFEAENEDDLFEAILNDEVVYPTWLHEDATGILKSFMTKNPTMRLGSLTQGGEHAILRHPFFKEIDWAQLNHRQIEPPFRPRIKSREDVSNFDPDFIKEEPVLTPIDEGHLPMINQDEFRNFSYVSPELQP
# [7] = target: T3, Protein kinase C beta type; experiment: Inhibitory concentration against recombinant human Protein kinase C beta 2 isozyme
# [8] = target: Protein kinase C gamma type (Homo sapiens, UniProt P05129); experiment: Inhibitory concentration against recombinant human Protein kinase C gamma isozyme
# [9] = target: Protein kinase C alpha type (Homo sapiens, UniProt P17252); experiment: Inhibitory concentration against recombinant human Protein kinase C alpha isozyme
SMILES,IC50 [1],IC50 [2],IC50 [3],IC50 [4],IC50 [5],IC50 [6],IC50 [7],IC50 [8],IC50 [9]
O=C(N[C@@H]1C2CC(C3CCCC32)[C@H]1OC(=O)c1cc(O)c(C(=O)c2c(O)cccc2C(=O)O)c(O)c1)c1ccc(O)cc1 (stereo partly drawn),32000 nM,–,–,–,–,–,–,–,–
O=C(N[C@@H]1CCCCC[C@H]1OC(=O)c1cc(O)c(C(=O)c2c(O)cccc2C(=O)O)c(O)c1)c1ccc(O)cc1,1400 nM,–,–,–,–,–,–,–,–
O=C(N[C@@H]1COCCC[C@H]1OC(=O)c1cc(O)c(C(=O)c2c(O)cccc2C(=O)O)c(O)c1)c1ccc(O)cc1,450 nM,16000 nM,90 nM,> 150000 nM,2500 nM,10 nM,3300 nM,1000 nM,6700 nM
NC[C@H]1C[C@@H](NC(=O)c2ccc(O)cc2)[C@H](OC(=O)c2cc(O)c(C(=O)c3c(O)cccc3C(=O)O)c(O)c2)C1,170 nM,30 nM,6 nM,2800 nM,4 nM,3 nM,4 nM,5 nM,20 nM
NC[C@@H]1C[C@@H](NC(=O)c2ccc(O)cc2)[C@H](OC(=O)c2cc(O)c(C(=O)c3c(O)cccc3C(=O)O)c(O)c2)C1,90 nM,30 nM,20 nM,3100 nM,5 nM,3 nM,5 nM,10 nM,20 nM
CC1(C)C2CCC1(C)[C@@H](OC(=O)c1cc(O)c(C(=O)c3c(O)cccc3C(=O)O)c(O)c1)[C@@H]2NC(=O)c1ccc(O)cc1 (stereo partly drawn),26000 nM,3600 nM,340 nM,> 50000 nM,310 nM,310 nM,80 nM,210 nM,410 nM
CC(=O)N1C[C@@H](NC(=O)c2ccc(O)cc2)[C@H](OC(=O)c2cc(O)c(C(=O)c3c(O)cccc3C(=O)O)c(O)c2)C1,3600 nM,3700 nM,60 nM,> 150000 nM,710 nM,30 nM,820 nM,390 nM,1200 nM
O=C(N[C@@H]1CNC[C@H]1OC(=O)c1cc(O)c(C(=O)c2c(O)cccc2C(=O)O)c(O)c1)c1ccc(O)cc1,70 nM,–,–,–,–,–,–,–,–
O=C(N[C@@H]1CNCC[C@H]1OC(=O)c1cc(O)c(C(=O)c2c(O)cccc2C(=O)O)c(O)c1)c1ccc(O)cc1,350 nM,–,–,–,–,90 nM,–,–,–
O=C(N[C@@H]1CSCCC[C@H]1OC(=O)c1cc(O)c(C(=O)c2c(O)cccc2C(=O)O)c(O)c1)c1ccc(O)cc1,7500 nM,5900 nM,90 nM,–,3800 nM,100 nM,2400 nM,1000 nM,3300 nM
COC(=O)N1C[C@@H](NC(=O)c2ccc(O)cc2)[C@H](OC(=O)c2cc(O)c(C(=O)c3c(O)cccc3C(=O)O)c(O)c2)C1,13000 nM,4800 nM,100 nM,> 150000 nM,810 nM,90 nM,2700 nM,540 nM,540 nM
O=C(N[C@H]1CNCCC[C@@H]1OC(=O)c1cc(O)c(C(=O)c2c(O)cccc2C(=O)O)c(O)c1)c1ccc(O)cc1,–,–,420 nM,> 150000 nM,500 nM,260 nM,880 nM,400 nM,3000 nM

# Now from value to molecule:
IC50 [1],IC50 [2],IC50 [3],IC50 [4],IC50 [5],IC50 [6],IC50 [7],IC50 [8],IC50 [9],SMILES
38000 nM,45000 nM,4000 nM,> 150000 nM,5200 nM,800 nM,3600 nM,4300 nM,9600 nM,O=C(N[C@@H]1CS(=O)(=O)CCC[C@H]1OC(=O)c1cc(O)c(C(=O)c2c(O)cccc2C(=O)O)c(O)c1)c1ccc(O)cc1
130 nM,100 nM,5 nM,–,20 nM,3 nM,10 nM,20 nM,40 nM,O=C(N[C@@H]1CC(O)C[C@H]1OC(=O)c1cc(O)c(C(=O)c2c(O)cccc2C(=O)O)c(O)c1)c1ccc(O)cc1 (stereo partly drawn)
4500 nM,1300 nM,35 nM,> 150000 nM,330 nM,62 nM,350 nM,400 nM,910 nM,CS(=O)(=O)N1C[C@@H](NC(=O)c2ccc(O)cc2)[C@H](OC(=O)c2cc(O)c(C(=O)c3c(O)cccc3C(=O)O)c(O)c2)C1
> 50000 nM,–,–,–,–,–,–,–,–,CN1C2CCC1C(NC(=O)c1ccc(O)cc1)C(OC(=O)c1cc(O)c(C(=O)c3c(O)cccc3C(=O)O)c(O)c1)C2 (stereo not drawn)
250 nM,150 nM,6 nM,–,30 nM,4 nM,20 nM,30 nM,50 nM,O=C(N[C@@H]1C[C@@H](O)C[C@H]1OC(=O)c1cc(O)c(C(=O)c2c(O)cccc2C(=O)O)c(O)c1)c1ccc(O)cc1
3000 nM,3600 nM,40 nM,> 50000 nM,680 nM,130 nM,1800 nM,410 nM,2200 nM,CNC(=O)N1C[C@@H](NC(=O)c2ccc(O)cc2)[C@H](OC(=O)c2cc(O)c(C(=O)c3c(O)cccc3C(=O)O)c(O)c2)C1
50 nM,10 nM,5 nM,1200 nM,4 nM,3 nM,2 nM,5 nM,20 nM,N[C@@H]1C[C@@H](NC(=O)c2ccc(O)cc2)[C@H](OC(=O)c2cc(O)c(C(=O)c3c(O)cccc3C(=O)O)c(O)c2)C1
220 nM,270 nM,20 nM,–,60 nM,20 nM,20 nM,50 nM,80 nM,O=C(N[C@@H]1C[C@@H](CO)C[C@H]1OC(=O)c1cc(O)c(C(=O)c2c(O)cccc2C(=O)O)c(O)c1)c1ccc(O)cc1
230 nM,160 nM,4 nM,–,4 nM,2 nM,3 nM,5 nM,10 nM,O=C(N[C@@H]1C[C@H](CO)C[C@H]1OC(=O)c1cc(O)c(C(=O)c2c(O)cccc2C(=O)O)c(O)c1)c1ccc(O)cc1
< 330 nM,50 nM,40 nM,–,60 nM,4 nM,70 nM,90 nM,240 nM,CC(C)N1C[C@@H](NC(=O)c2ccc(O)cc2)[C@H](OC(=O)c2cc(O)c(C(=O)c3c(O)cccc3C(=O)O)c(O)c2)C1
1700 nM,170 nM,110 nM,–,26 nM,26 nM,69 nM,140 nM,410 nM,O=C(N[C@@H]1CN2CCC(CC2)[C@H]1OC(=O)c1cc(O)c(C(=O)c2c(O)cccc2C(=O)O)c(O)c1)c1ccc(O)cc1
1900 nM,30 nM,20 nM,–,50 nM,20 nM,30 nM,40 nM,60 nM,O=C(N[C@@H]1C2CCC(C2)[C@H]1OC(=O)c1cc(O)c(C(=O)c2c(O)cccc2C(=O)O)c(O)c1)c1ccc(O)cc1 (stereo partly drawn)
–,–,20 nM,3500 nM,–,–,–,–,70 nM,O=C(NC1CNCCCC1OC(=O)c1cc(O)c(C(=O)c2c(O)cccc2C(=O)O)c(O)c1)c1ccc(O)cc1 (racemic)
–,–,4 nM,7400 nM,–,–,–,20 nM,–,O=C(N[C@@H]1CNCCC[C@H]1OC(=O)c1cc(O)c(C(=O)c2c(O)cccc2C(=O)O)c(O)c1)c1ccc(O)cc1 [BALANOL]
